Data published in patent US7964406B2, “Means and methods for producing a stabilized cell of interest” (Academisch Medisch Centrum Bij De Universiteit Van Amsterdam, priority 2004, dated 2011).

Legend:
[1] = tested on: human tonsillar B cells; test: 4HT-dependent growth of CA-STAT5b-ER transduced tonsillar B cells; type: cell-based; settings: 1 μM 4HT, CD40L, IL-2 and IL-4
Description: FIG. 19. Characteristics of B cells transduced with CA-STAT5b-ER. (A) Tonsil B cells were cultured in CD40L, IL-2 and IL-4 and transduced with CA-STAT5b-ER-IRES-ΔNGFR (circles) or with control-IRES-ΔNGFR (squares). Both cultures were split, one part was cultured without (open symbols) and another with 1 μM 4HT (closed symbols). At the indicated time points after transduction percentages of transduced cells were determined by flow cytometric analysis after staining with an APC-conjugated antibody against NGFR. Absolute cell number counts were determined based on the percentages of ΔNGFR^+ cells. The experiment shown is representative for 5 independent experiments performed. (B) CA-STAT5b-ER-IRES-ΔNGFR transduced B cells 30 days after transduction were cultured for 7 days in the absence of 4HT. Equal numbers of cells were cultured then either in the presence (closed squares) or absence of 4HT (open squares) and absolute cell numbers were determined. Shown is a representative experiment out of 3. (C) Flow cytometric analysis of a representative culture of CA-STAT5b-ER-IRES-ΔNGFR transduced B cells cultured in CD40L, IL-2 and IL-4 in the presence of 4HT. Isotype control stainings are shown as thin histograms.
We then transduced human tonsillar B cells with the CA-STAT5b-ER-IRES-ΔNGFR construct and examined the effect of 4HT on the proliferative capacity of these B cells. […]

[2] = tested on: BCL-6; test: BCL-6 expression in STAT5b-ER+ tonsil B cells after 4HT, RT-PCR and Western blot; type: cell-based, human; settings: 4HT added back for 8 hr after 10 days without
Description: FIG. 21. Induction of BCL-6 expression by STAT5. (A) RT-PCR analysis of BCL-6 and HPRT in B cells transduced with CA-STAT5b-ER cultured in CD40L, IL-2 and IL-4 with 4HT. After incubation of the cells without 4HT for 10 days, 4HT was added back for 8 hr in the presence or absence of cyclohexamide (CH). This experiment was repeated 3 times with similar results. (B) Expression of BCL-6 protein in CA-STAT5b-ER-transduced B cells cultured in the presence of 4HT constantly or absence of 4HT for 12 days as determined by Western blot analysis using an anti-BCL-6 antibody. An antibody against actin was used as a protein loading control. Similar results were obtained in 3 independent experiments. (C) Dual luciferase reporter assay. Part of the promoter region of the BCL-6 gene (position −657/+471 bp) was linked to the firefly (P. pyralis) luciferase coding sequence and subcloned into the pGL3 vector. One potential STAT5 binding site in this promoter region (−548/−566 bp) was mutated from […] to […], and two different clones (BCL-6* and BCL-6**) were subcloned into the pGL3-firefly luciferase backbone. These pGL3 constructs were cotransfected with LZRS-CA-STAT5b and the Renilla luciferase containing vector into 293T cells. Both luciferase activities were measured sequentially from a single sample and relative luciferase units were calculated and corrected for the Renilla luciferase activity. […]

## 4-Hydroxy-Tamoxifen [4HT]
[1]
  growth selection of CA-STAT5b-ER expressing cells (ΔNGFR+): only occurred in the presence of 4HT
[2]
  expression of the BCL-6 transcript with 4HT versus without: substantially higher
